The subject of one series is rat. As to conditions: oral administration; cited from earlier work.
For another series, the system named is KKAy mouse. The conditions noted are these: oral dose of 900 mg/kg/day; cited from earlier work.
For series [1], the system named is C57BL/KsJ db/db mice. Description: Consumption of water and food by db/db mice. As to conditions: male db/db mice, control = 100.
Text: The C57BL/KsJ db/db mice used in the experiments reported here below were supplied by Jackson Lab (via Ch. River).
For another series, the system named is ob/ob mouse. The series is described as follows: Reduction in hyperglycaemia in the ob/ob mouse (laboratory experiments). As to conditions: oral dose of 600 mg/kg/day.
Another series concerns diabetic patients. The conditions noted are these: cited from earlier work.
Series [2] deals with C57BL/KsJ db/db mice. Description: Serum glucose levels in db/db mice after 4 days of subcutaneous treatment. As to conditions: male db/db mice, postabsorption conditions, 8 hours after last treatment, control = 100.
Setting [3] is: 100 mg/kg s.c. twice daily for 4 days.
[4] abbreviates: 25 mg/kg s.c. twice daily for 4 days.

Where two headings read alike, the source gives them in different places.

By LD50 is commonly meant the dose expected to kill half of the subjects tested.

With `CN(C)C(=N)N=C(N)N` [Metformin], the LD50 in the series with rat is 1000 mg/kg. The reduction in hyperglycaemia with KKAy mouse was 50%; with ob/ob mouse, 22%. In the series on C57BL/KsJ db/db mice [1] (setting [3]), the “Food % (consumption, variation vs Control)” value (“Food %” below) is 119%. Besides, in the series on C57BL/KsJ db/db mice [1] (setting [3]), the “Water % (consumption, variation vs Control)” value (from here on “Water %”) turned out to be 113%. Besides, the reduction of hyperglycaemia in the series on diabetic patients (in combination with sulphonylureas) was 25%; in the series with diabetic patients (monotherapy after the failure of diet and physical exercise) it was 20-30%. The “Glucose % (variation vs Control)” value with C57BL/KsJ db/db mice [2] (setting [3]) is reported as 104%.
For the compound `CC(C)=CCNC(=N)NCCCCN.CS(=O)(=O)O` [ST2369, N-(4-aminobutyl)-N′-(γ,γ-dimethylallyl)guanidine methane sulphonate], in the series on C57BL/KsJ db/db mice [1] (setting [4]), the “Food %” value is reported as 63% and the “Water %” value was 47%.
`CC(C)=CCNC(=N)NCCCCCCN.CS(=O)(=O)O` [ST2370, N-(γ,γ-dimethylallyl)-N′-(6-aminohexyl)guanidine methane sulphonate]: in the series with C57BL/KsJ db/db mice [1] (setting [4]), the “Food %” value is recorded as 81% and the “Water %” value stood at 47%. For the same compound, the “Glucose % (variation vs Control)” value with C57BL/KsJ db/db mice [2] (setting [4]) is listed as 69 □ %.
